Marks after values point to notes of the source that are not given here. Non-standard residues stand in square brackets, D forms with d. Residues, ends and D or L forms follow the SMILES beside them. *: point of attachment. X1 = CC1(C)C(=CC=CC=CC=CC2=[N+](CCCCCC(=O)*)c3ccc4ccccc4c3C2(C)C)N(CCCCS(=O)(=O)[O-])c2ccc3ccccc3c21; Cha = N[C@@H](CC1CCCCC1)C(=O)O
Columns and labels:
[1] = test system: oral and oropharyngeal squamous cell carcinoma (OSCC, OPSCC); assay: Intraoperative near-infrared optical imaging: tumor-to-background ratio and absolute intensities (Elevision); format: in vivo, human; details: for TBR (mean (range)): preoperative NIR image, max tumor ROI / mean of 3 background ROIs, Elevision, 805 nm
Description: All patients were treated surgically according to the national guidelines. The primary investigator (PI) was part of the surgical team in all procedures. A surgical robot system (DaVinci Si, Intuitive) was used for TORS in the two patients with OPSCC. The surgeons were not allowed to resect tissue based on intraoperative detected fluorescence signal but complied with standard of care. Depending on the clinical TNM staging (based on clinical examination, ultrasonography examination of the neck, and MRI or CT scans), either sentinel lymph node biopsy (using 99^mTc-nanocoll) or neck dissection was performed for neck management. Post-surgical (chemo)radiation was prescribed according to national guidelines at a multidisciplinary conference. The pre-, intraoperative, and ex-vivo optical images were obtained using the open-field imaging system Elevision® model VS3 Iridium-Visionsense Infrared (IR) Fluorescence, Vision System (Medtronics, USA). Image profile: NIR_highcontrast or NIR_contrast, excitation laser: 805 nm. The Elevision IR system generates real-time optical imaging merged with the color video recording on a viewer screen. The intensity-dependent multi-color NIR overlay was presented in parallel with white-light and NIR grayscale images. The camera head was mounted on a maneuverable arm over the surgical field with sterile draping. The preferred camera-to-tumor distance was 20-40 centimeters, but the system also allows positioning at closer or longer distances to areas of interest. For optimal imaging, all other light sources in the OR were switched off and window blinds were closed. The imaging system itself provides powerful white light illumination of the surgical field when imaging is performed.
All images and videos were stored in JPG- and mp4-file format. The following images were captured for all 16 patients who completed the trial: 1) Preoperative images of the tumor. 2) Intraoperative images of the tumor and metastatic lymph nodes. 3) Images of the surgical cavity (i.e., tumor bed) after tumor resection. 4) Ex-vivo images of the resected tumor specimen on the back-table, see Figure 2.
For imaging analysis, the TBR was calculated as the maximum fluorescence intensity of the tumor region of interest (ROI) divided by the mean fluorescence intensity of 3 background ROIs on a preoperative NIR image by use of an in-house designed Python-based annotation tool. The tumor ROIs were drawn based on information from intraoperative clinical observations, and preoperative white-light and NIR images. Background ROIs were defined within the soft tissues adjacent to the tumor. The absolute numeric intensities were obtained by adjusting the fluorescence intensity for the specific gain values applied by the imaging system.

uPAR = target: T1, uPAR (Homo sapiens, UniProt Q03405); assay: Morphological co-localization between FG001 signal, tumor tissue and uPAR expression (Typhoon/Odyssey scan, IHC, H&E)
T1 construct: from tissue
Text: For 5 out of the 16 patients, the resected tumor specimens were cut in half, sliced at the OR, and imaged with the Elevision® imaging system. The specimens underwent routine pathologic processing at the Department of Pathology. The slices were frozen with a Milestone PrestoCHILL cryoembedder/freezer and, cut into 8 µm tissue slices with a Leica® CM1860 Cryostat and placed on glass slides. To evaluate the overlap between fluorescence signal from FG001, uPAR-expression, and tumor tissue, the cryosections were first fluorescently scanned with an Amersham Typhoon^TM scanner from Cytiva and, thereafter, stained using immunohistochemistry for uPAR and Cytokeratin (CK), and hematoxylin and eosin (H&E) stained. The Typhoon^TM scanner settings were PMT: 350-500 V and excitation wavelength: 785 nm. The immunohistochemical staining for uPAR was performed with the antibody GTX100467 (Gentex, USA), and Cytokeratin with M351529-2 Dako (Agilent). The H&E stain was performed according to standard practice. All tissue slides were scanned with the high-resolution AxioScan 7 (Zeiss, Germany). […]
The different stained tissue sections were aligned using the BigWarp plugin in Fiji (NIH, open-source version: 1.54f) software. A pathologist delineated the tumors, and the fluorescence imaging generated from the Typhoon scanner was overlayed on the HE stains using ImageJ (NIH, open source), (see Figure 3M).

[2] = 40 patients with malignant glioblastoma, 1 to 48 mg; ref [15],[33]; cited from earlier work
[3] = test system: oral and oropharyngeal squamous cell carcinoma (OSCC, OPSCC); assay: Longitudinal preoperative transoral imaging of the tumors; format: in vivo, human
Description: For 3 out of the 16 patients, longitudinal preoperative imaging of their tumors was captured during the period before surgery. […] Minor deviations from the protocol requirements were due to prioritization of the patients' night sleep before surgery - therefore, no images were taken in the timespan between 8 and 14 hrs post-injection. All longitudinal images were captured with the same camera-to-tumor distance (app. 25-35 cm) in a darkened room. The TBR value was calculated for all time points and plotted as a function of time, see Figure 4 for a case example.

T1 sequence (Q03405 23-335): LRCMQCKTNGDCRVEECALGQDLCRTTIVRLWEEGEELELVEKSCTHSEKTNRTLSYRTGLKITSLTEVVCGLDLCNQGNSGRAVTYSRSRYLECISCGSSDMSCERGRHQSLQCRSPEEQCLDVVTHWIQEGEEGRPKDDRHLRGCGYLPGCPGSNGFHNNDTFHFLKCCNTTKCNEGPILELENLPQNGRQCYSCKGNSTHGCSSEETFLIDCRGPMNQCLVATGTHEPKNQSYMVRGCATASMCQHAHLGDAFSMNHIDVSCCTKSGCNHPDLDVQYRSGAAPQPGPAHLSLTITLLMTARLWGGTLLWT

CC(C)C[C@H](NC(=O)[C@H](Cc1ccc(O)cc1)NC(=O)[C@@H](CCCNC(=N)N)NC(=O)[C@@H](CO)NC(=O)[C@H](Cc1ccccc1)NC(=O)[C@H](CC1CCCCC1)NC(=O)[C@H](CC(=O)O)NC(=O)[C@H](CCC(=O)O)NC(=O)[C@H](CCC(=O)O)NC(=O)CCCCC[N+]1=C(C=CC=CC=CC=C2N(CCCCS(=O)(=O)[O-])c3ccc4ccccc4c3C2(C)C)C(C)(C)c2c1ccc1ccccc21)C(=O)N[C@@H](Cc1c[nH]c2ccccc12)C(=O)N[C@@H](CO)C(=O)O [FG001, ICG-Glu-Glu-AE105] (X1-EED[Cha]F[dS][dR]YLWS-OH; N-terminus and C-terminus assumed)
TBR (mean (range)) ([1]; FG001 4 mg i.v., n = 4 completed): 3.07 (2.30 - 3.48)*
TBR (mean (range)) ([1]; FG001 16 mg i.v., n = 8): 2.91 (2.02 - 3.95)
TBR (mean (range)) ([1]; FG001 36 mg i.v., n = 4): 3.08 (2.68 - 3.46)
TBR (contrast for demarcation of tumors), consistently ([1]; all patients, even at the lowest dose): above 2
Optical signal in resected cancer tissues after formalin fixation and paraffin embedding (uPAR; days following surgery): preserved
Co-localization between uPAR-expression and FG001 fluorescence signal (uPAR; microscopic fluorescence imaging, tumor cross-sections of 5 patients across the 3 dose cohorts): high level of co-localization
Grade I drug-related adverse events, number [2]: 3
Grade II drug-related adverse events, number [2]: 1
Safety and tolerability [2]: safe and well-tolerated
Time post-injection after which tumor-specific signals could be detected ([3]; FG001 16 mg i.v., three awake patients, transoral): 2 h
TBR in longitudinal imaging ([3]; FG001 16 mg i.v., three awake patients, transoral, from 2 hrs until 19 hrs post-injection): above 2
Window for drug administration prior to surgery ([3]; indicated by the longitudinal data for tumor imaging): 2 to 19 h
